Experimental data published in article PMC3070195 (Bioconjugate chemistry, 2010).

What was measured:
Vero cells = assay: Cytotoxicity in Vero cells; type: cell-based, African green monkey; settings: 3 days, hemacytometer; for IC50: read-out: Cytotoxicity IC50 VERO cells
[1] = Cytotoxicity in uninfected PHA-stimulated PBM cells; type: cell-based, human; settings: human, uninfected PHA-stimulated PBM cells
[2] = Cytotoxicity in CEM cells; type: cell-based; settings: human, CEM (CEM-CCRF) T-lymphoblastoid cells
[3] = Cytotoxicity in Vero cells; type: cell-based, African green monkey; settings: African green monkey, Vero (kidney) cells
PBM cells = assay: Cytotoxicity in uninfected PHA-stimulated PBM cells; type: cell-based, human; settings: 6 days, cell growth, trypan blue exclusion

Compound	IC50 (Vero cells) [µM]	also measured
O=c1[nH]c(=O)n([C@H]2C[C@H](O)[C@@H](CO)O2)cc1I [IdUrd]	> 100	
O=c1[nH]cnc2c1ncn2[C@H]1CC[C@@H](CO)O1 [ddI]	> 100	
Cc1cn([C@H]2C[C@H](N=[N+]=[N-])[C@@H](CO)O2)c(=O)[nH]c1=O [AZT, zidovudine]		IC50 at 6 days [1]: > 100 µM
O=c1[nH]cnc2c1ncn2[C@H]1CC[C@@H](COP(=O)(O)OC[C@H]2OC(O)[C@H](O)[C@@H](O)[C@@H]2O)O1 (stereo partly drawn) [10e, 2′,3′-Dideoxyinosine 5′-(α/β-D-glucopyranos-6-yl) phosphate]	> 100	
Nc1ncnc2c1ncn2[C@@H]1O[C@H](COP(=O)(O)OC[C@H]2OC(O)[C@H](O)[C@@H](O)[C@@H]2O)[C@@H](O)[C@@H]1O (stereo partly drawn) [10h, 1′-Adeninyl-β-D-arabinofuranose 5′-(α/β-D-glucopyranos-6-yl) phosphate]	> 100	
Nc1ncnc2c1ncn2[C@@H]1O[C@H](CO)[C@@H](O)[C@@H]1O [Ara-A, ara-adenosine]		IC50 at 6 days [1]: 26 µM; IC50 at 6 days [2]: 26.2 µM; IC50 at 3 days [3]: > 100 µM
Cc1cn([C@H]2C=CC(COP(=O)(O)OC[C@H]3O[C@H](O)[C@H](O)[C@@H](O)[C@@H]3O)O2)c(=O)[nH]c1=O (stereo partly drawn) [10b, 2′,3′-Didehydro-2′,3′-dideoxythymidine 5′-(α/β-D-glucopyranos-6-yl) phosphate]	> 100	Cytotoxicity IC50 PBM cells (PBM cells): no cytotoxicity; Cytotoxicity IC50 VERO cells (Vero cells): no cytotoxicity
O=c1ccn([C@H]2C=C[C@@H](COP(=O)(O)OC[C@H]3OC(O)[C@H](O)[C@@H](O)[C@@H]3O)O2)c(=O)[nH]1 (stereo partly drawn) [10a, 2′,3′-Didehydro-2′,3′-dideoxyuridine 5′-(α/β-D-glucopyranos-6-yl) phosphate]	> 100	
O=c1ccn([C@H]2C=C[C@@H](CO)O2)c(=O)[nH]1 [d4U]	> 100	
Nc1ncnc2c1ncn2[C@H]1CC[C@@H](CO)O1 [ddA]	> 100	
O=c1[nH]c(=O)n([C@H]2C[C@H](OP(=O)(O)OC[C@H]3O[C@H](O)[C@H](O)[C@@H](O)[C@@H]3O)[C@@H](CO)O2)cc1I [10d, 2′-Deoxy-5-iodouridine 3′-(α/β-D-glucopyranos-6-yl) phosphate]	> 100	
Cc1cn([C@H]2C=C[C@@H](CO)O2)c(=O)[nH]c1=O [d4T]	> 100	
Nc1ccn([C@@H]2O[C@H](CO)[C@@H](O)[C@@H]2O)c(=O)n1 [Ara-C, Ara-cytidine]		IC50 at 6 days [1]: 57 µM; IC50 at 6 days [2]: < 0.1 µM
NC(=O)c1ncn([C@@H]2O[C@H](COP(=O)(O)OC[C@H]3OC(O)[C@H](O)[C@@H](O)[C@@H]3O)[C@@H](O)[C@H]2O)n1 (stereo partly drawn) [10g, 1′-(3-Carbamoyl-1,2,4-triazoyl)-β-D-ribofuranose 5′-(α/β-D-glucopyranos-6-yl) phosphate]	> 100	
O=c1[nH]c(=O)n([C@H]2C[C@H](O)[C@@H](COP(=O)(O)OC[C@H]3OC(O)[C@H](O)[C@@H](O)[C@@H]3O)O2)cc1I (stereo partly drawn) [10c, 2′-Deoxy-5-iodouridine 5′-(α/β-D-glucopyranos-6-yl) phosphate]	> 100	
Nc1ncnc2c1ncn2[C@H]1CC[C@@H](COP(=O)(O)OC[C@H]2OC(O)[C@H](O)[C@@H](O)[C@@H]2O)O1 (stereo partly drawn) [10f, 2′,3′-Dideoxyadenosine 5′-(α/β-D-glucopyranos-6-yl) phosphate]	73.2	
Nc1ccn([C@@H]2O[C@H](COP(=O)(O)OC[C@H]3OC(O)[C@H](O)[C@@H](O)[C@@H]3O)[C@@H](O)[C@@H]2O)c(=O)n1 (stereo partly drawn) [10i, 1′-Cytosinyl-β-D-arabinofuranose 5′-(α/β-D-glucopyranos-6-yl) phosphate]	< 1	
NC(=O)c1ncn([C@@H]2O[C@H](CO)[C@@H](O)[C@H]2O)n1 [Virazole]		IC50 at 6 days [1]: > 100 µM; IC50 at 6 days [2]: 53 µM; IC50 at 3 days [3]: > 100 µM
